Test results from patent US20240101572A1, “DIHYDROOXADIAZINONE COMPOUND AND PHARMACEUTICAL USE THEREOF” (Japan Tobacco Inc., priority 2022, published 2024).
Like-named read-outs stand apart in the source and are kept apart here.

Experiments:
full-length human PLD2 = full-length human PLD2 (Homo sapiens (Human), UniProt O14939); assay: Evaluation of human PLD2 enzyme inhibitory activity (Amplex Red / choline oxidase fluorescence); type: biochemical
Summary of the method: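 Released choline was read by Amplex Red fluorescence coupled to choline oxidase and HRP after a 60 min room-temperature reaction. Substrate was diheptanoyl phosphatidylcholine, added as a 6 mmol/L solution, and enzyme was FLAG-tagged full-length human PLD2 from Expi293F, added as a 6 nmol/L solution. Buffer was 50 mM HEPES pH 7.5 with 5% final DMSO.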

full-length human PLD1 = full-length human PLD1 (Homo sapiens (Human), UniProt Q13393); assay: Evaluation of human PLD1 enzyme inhibitory activity (Amplex Red / choline oxidase fluorescence); type: biochemical
Chain of full-length human PLD1 (Q13393 other isoform, or with tags, fused parts or gaps): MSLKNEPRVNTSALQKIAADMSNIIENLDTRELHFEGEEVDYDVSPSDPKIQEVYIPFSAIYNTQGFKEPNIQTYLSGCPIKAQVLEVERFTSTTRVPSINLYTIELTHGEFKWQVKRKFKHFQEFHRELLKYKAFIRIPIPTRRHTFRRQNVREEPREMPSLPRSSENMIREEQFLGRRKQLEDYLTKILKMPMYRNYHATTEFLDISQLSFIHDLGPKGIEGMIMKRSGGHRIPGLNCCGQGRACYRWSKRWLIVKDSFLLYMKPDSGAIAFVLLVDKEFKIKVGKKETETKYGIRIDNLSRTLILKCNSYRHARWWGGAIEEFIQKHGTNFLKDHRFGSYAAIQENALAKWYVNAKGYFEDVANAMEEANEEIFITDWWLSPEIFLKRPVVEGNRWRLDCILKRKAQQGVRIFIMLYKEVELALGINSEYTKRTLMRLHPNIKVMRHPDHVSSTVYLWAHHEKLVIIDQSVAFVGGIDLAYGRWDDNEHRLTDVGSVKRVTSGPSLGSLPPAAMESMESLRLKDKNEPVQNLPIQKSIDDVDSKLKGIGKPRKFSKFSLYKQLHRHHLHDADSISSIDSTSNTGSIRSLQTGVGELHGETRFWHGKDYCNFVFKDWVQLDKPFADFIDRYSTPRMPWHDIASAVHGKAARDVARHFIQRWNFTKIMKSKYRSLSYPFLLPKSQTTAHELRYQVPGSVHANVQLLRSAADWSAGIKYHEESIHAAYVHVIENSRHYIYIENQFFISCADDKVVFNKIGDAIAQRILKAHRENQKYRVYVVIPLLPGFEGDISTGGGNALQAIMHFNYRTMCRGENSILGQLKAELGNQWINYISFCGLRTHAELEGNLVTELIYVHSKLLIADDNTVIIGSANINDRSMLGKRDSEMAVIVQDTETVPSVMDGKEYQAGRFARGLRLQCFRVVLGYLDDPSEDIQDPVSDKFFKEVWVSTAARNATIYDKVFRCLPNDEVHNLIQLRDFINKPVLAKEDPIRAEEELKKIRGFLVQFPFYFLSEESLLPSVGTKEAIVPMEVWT
Summary of the method: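 Fluorescence read-out couples choline to Amplex Red via choline oxidase and peroxidase after a 60 min room-temperature reaction. Enzyme: FLAG-tagged full-length human PLD1 from Expi293F cells, anti-FLAG purified; substrate diheptanoyl phosphatidylcholine; HEPES pH 7.5 assay buffer with 0.01% NP-40, 0.1% BSA, 5% DMSO final.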

[1] = full-length human PLD2 enzyme, read-out: PLD2 IC50
[2] = full-length human PLD1 enzyme, read-out: PLD1 IC50
[3] = column 2 of continuation tables 2-12 to 2-14, read-out: human PLD2 enzyme inhibitory activity IC50
[4] = column 1 of continuation tables 2-12 to 2-14, read-out: human PLD1 enzyme inhibitory activity IC50

Chain of full-length human PLD2 (O14939 whole entry): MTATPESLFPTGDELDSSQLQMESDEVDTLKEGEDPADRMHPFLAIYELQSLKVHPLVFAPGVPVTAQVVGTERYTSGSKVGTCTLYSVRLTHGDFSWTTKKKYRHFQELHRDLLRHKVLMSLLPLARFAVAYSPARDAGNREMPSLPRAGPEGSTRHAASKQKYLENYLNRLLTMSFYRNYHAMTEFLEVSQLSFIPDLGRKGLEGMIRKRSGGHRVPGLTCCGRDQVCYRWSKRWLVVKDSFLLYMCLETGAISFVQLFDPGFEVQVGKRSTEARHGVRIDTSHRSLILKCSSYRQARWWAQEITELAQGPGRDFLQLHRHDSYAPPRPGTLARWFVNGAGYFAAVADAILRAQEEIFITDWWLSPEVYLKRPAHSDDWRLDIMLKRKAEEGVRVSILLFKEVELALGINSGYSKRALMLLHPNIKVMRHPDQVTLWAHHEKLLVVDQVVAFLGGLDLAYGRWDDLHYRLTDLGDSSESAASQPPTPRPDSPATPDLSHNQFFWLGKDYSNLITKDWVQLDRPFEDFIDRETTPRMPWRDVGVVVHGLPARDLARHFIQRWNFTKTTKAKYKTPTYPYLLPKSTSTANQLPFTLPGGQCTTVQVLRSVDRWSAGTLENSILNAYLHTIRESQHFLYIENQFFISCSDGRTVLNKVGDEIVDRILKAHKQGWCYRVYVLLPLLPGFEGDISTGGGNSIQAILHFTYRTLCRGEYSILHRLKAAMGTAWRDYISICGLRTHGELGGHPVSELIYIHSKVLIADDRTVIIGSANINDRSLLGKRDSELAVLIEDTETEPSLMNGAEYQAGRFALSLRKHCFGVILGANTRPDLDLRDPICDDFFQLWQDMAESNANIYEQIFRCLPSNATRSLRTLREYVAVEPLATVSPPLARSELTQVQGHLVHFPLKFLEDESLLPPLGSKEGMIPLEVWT

SMILES | IC50 (full-length human PLD2; [1]) | IC50 (full-length human PLD1; [2]) | IC50 (full-length human PLD2; [3]) | IC50 (full-length human PLD1; [4])
Cc1cc(C(=O)N[C@@H](C)C[C@H]2CC[C@]3(CC2)OC(=O)NN=C3c2cccnc2)[nH]n1 [Example 16] | 968 nM | 926 nM | – | –
Cc1cc(C(=O)N[C@@H](C)C[C@H]2CC[C@]3(CC2)OC(=O)NN=C3c2cc(OC(F)F)ccc2C)[nH]n1 [Example 215] | < 10 nM | < 10 nM | – | –
Cc1cccnc1C1=NNC(=O)O[C@]12CC[C@@H](C[C@H](C)NC(=O)c1cc3ccccc3o1)CC2 [Example 149] | < 10 nM | 12 nM | – | –
CNC(=O)C(=O)N[C@@H](C)CN1CCC2(CC1)OC(=O)NN=C2c1cc(C(C)(C)O)ccc1Br [Example 2-034] | 10 nM | 31 nM | – | –
C[C@@H](C[C@H]1CC[C@]2(CC1)OC(=O)NN=C2c1cccc(OC(F)F)c1Br)NC(=O)c1cnn(C)c1 [Example 309] | < 10 nM | 15 nM | – | –
Cc1cc(N2CCOCC2)ccc1C1=NNC(=O)O[C@]12CC[C@@H](C[C@H](C)NC(=O)NC1CC1)CC2 [Example 229] | 310 nM | 197 nM | – | –
CNC(=O)C(=O)N[C@@H](C)CN1CCC2(CC1)OC(=O)NN=C2c1ccccc1SC(F)(F)F [Example 2-021] | 15 nM | 27 nM | – | –
C[C@@H](C[C@H]1CC[C@]2(CC1)OC(=O)NN=C2c1ccc(F)cc1Br)NC(=O)c1cc(Cl)no1 [Example 37] | < 10 nM | < 10 nM | – | –
Cc1cc(C(=O)N[C@@H](C)C[C@H]2CC[C@]3(CC2)OC(=O)NN=C3c2cnc(N3C[C@H]4C[C@@H]3CO4)cc2C)[nH]n1 [Example 249] | < 10 nM | 25 nM | – | –
Cc1cc(C(=O)N[C@@H](C)C[C@H]2CC[C@]3(CC2)OC(=O)NN=C3c2cnc(Cl)cc2N2CCC(F)(F)C2)[nH]n1 [Example 223] | 246 nM | 396 nM | – | –
C[C@@H](C[C@H]1CC[C@]2(CC1)OC(=O)NN=C2c1ccc(S(C)(=O)=O)cc1Cl)NC(=O)c1cc(Cl)no1 [Example 52] | < 10 nM | 21 nM | – | –
CNC(=O)C(=O)N[C@@H](C)C[C@H]1CC[C@]2(CC1)OC(=O)NN=C2c1cnc(N2CCCC2)cc1C [Example 165] | < 10 nM | 19 nM | – | –
[2H]C([2H])([2H])NC(=O)C(=O)N[C@@H](C)C[C@]1(C#N)CC[C@@]2(CC1)OC(=O)NN=C2c1ccccc1Br [Example 2-164] | – | – | < 10 nM | < 10 nM
C[C@@H](C[C@]1(C#N)CC[C@@]2(CC1)OC(=O)NN=C2c1cc(OC(F)F)ccc1Br)NC(=O)c1cn(C)cn1 [Example 2-078] | < 10 nM | < 10 nM | – | –
CNC(=O)C(=O)N[C@@H](C)C[C@]1(C#N)CC[C@@]2(CC1)OC(=O)NN=C2c1cc(OC)ncc1Br [Example 2-077] | < 10 nM | 15 nM | – | –
CC(=O)Nc1cccc2[nH]c(C(=O)N[C@@H](C)C[C@H]3CC[C@]4(CC3)OC(=O)NN=C4c3ccc(F)cc3)cc12 [Example 142] | < 10 nM | 22 nM | – | –
CNC(=O)C(=O)N[C@@H](C)C[C@H]1CC[C@]2(CC1)OC(=O)NN=C2c1ccccc1S(C)(=O)=O [Example 75] | 1990 nM | 1630 nM | – | –
C[C@@H](C[C@H]1CC[C@]2(CC1)OC(=O)NN=C2c1ccc(F)cc1Br)NC(=O)/C=C/CN(C)C [Example 279] | 44 nM | 86 nM | – | –
CNC(=O)C(=O)N[C@@H](C)C[C@H]1CC[C@]2(CC1)OC(=O)NN=C2c1cnc(N2CC(C(F)(F)F)C2)cc1C [Example 192] | < 10 nM | 21 nM | – | –
C[C@@H](C[C@H]1CC[C@]2(CC1)OC(=O)NN=C2c1cc(C#N)ccc1Br)NC(=O)c1cc(C2CC2)n[nH]1 [Example 2-069] | < 10 nM | < 10 nM | – | –
Cc1cc(F)ccc1C1=NNC(=O)O[C@]12CC[C@@H](C[C@H](C)NC(=O)N1CC[C@@H](c3ccccc3)C1)CC2 [Example 138] | 1400 nM | 774 nM | – | –

SMILES | IC50 (full-length human PLD2; [1]) | IC50 (full-length human PLD1; [2]) | IC50 (full-length human PLD2; [3]) | IC50 (full-length human PLD1; [4])
CNC(=O)C(=O)N[C@H](CN1CCC2(CC1)OC(=O)NN=C2c1cc(C#N)ccc1Br)C(F)(F)F [Example 2-017] | 45 nM | 99 nM | – | –
Cc1cc(C(=O)N[C@@H](C)C[C@H]2CC[C@]3(CC2)OC(=O)NN=C3c2cccc3c2OCC3)[nH]n1 [Example 107] | 139 nM | 85 nM | – | –
CNC(=O)C(=O)N[C@@H](C)C[C@H]1CC[C@]2(CC1)OC(=O)NN=C2c1cnccc1C [Example 112] | 20 nM | 31 nM | – | –
Cc1cc(C(=O)N[C@@H](C)C[C@H]2CC[C@]3(CC2)OC(=O)NN=C3c2ccc(C(=O)NC3CC3)cc2C)[nH]n1 [Example 204] | 146 nM | 123 nM | – | –
C[C@@H](C[C@H]1CC[C@]2(CC1)OC(=O)NN=C2c1ccc(C#N)cc1Br)NC(=O)c1cc(Cl)no1 [Example 71] | < 10 nM | < 10 nM | – | –
CNC(=O)C(=O)N[C@@H](C)C[C@H]1CC[C@]2(CC1)OC(=O)NN=C2c1ccc(S(=O)(=O)C(C)C)cc1Br [Example 66] | < 10 nM | 16 nM | – | –
Cc1cc(C(=O)NC[C@@H](C)N2CCC3(CC2)OC(=O)NN=C3c2ccc(C#N)cc2Br)[nH]n1 [Example 332] | 15 nM | 2600 nM | – | –
C[C@@H](CN1CCC2(CC1)OC(=O)NN=C2c1cc(C#N)ccc1Br)NC(=O)c1cc(F)c[nH]1 [Example 302] | < 10 nM | 17 nM | – | –
[2H]C([2H])([2H])NC(=O)C(=O)N[C@@H](C)CN1CCC2(CC1)OC(=O)NN=C2c1cc(C#N)ccc1Br [Example 2-001] | < 10 nM | 41 nM | – | –
C[C@@H](C[C@H]1CC[C@]2(CC1)OC(=O)NN=C2c1ccccc1SC(F)(F)F)NC(=O)c1cnn(C)c1 [Example 2-020] | 16 nM | 21 nM | – | –
Cc1cc(Cl)c(C2=NNC(=O)O[C@]23CC[C@@H](C[C@H](C)NC(=O)c2cc(C)n[nH]2)CC3)cn1 [Example 231] | 12 nM | 24 nM | – | –
CNC(=O)C(=O)N[C@@H](C)CN1CCC2(CC1)OC(=O)NN=C2c1cc(Br)c(F)cc1Cl [Example 2-015] | 12 nM | 26 nM | – | –
C[C@@H](C[C@H]1CC[C@]2(CC1)OC(=O)NN=C2c1ccc(C(C)(C)O)cc1Br)NC(=O)c1cc(Cl)no1 [Example 97] | < 10 nM | < 10 nM | – | –
CNC(=O)C(=O)N[C@@H](C)C[C@H]1CC[C@]2(CC1)OC(=O)NN=C2c1cnc(N2C[C@@H]3C[C@H]2CO3)cc1Cl [Example 244] | < 10 nM | 19 nM | – | –
CNC(=O)C(=O)N[C@@H](C)C[C@H]1CC[C@]2(CC1)OC(=O)NN=C2c1cnc(N2CCC(F)(F)C2)cc1C [Example 248] | < 10 nM | 17 nM | – | –
COC(=O)N[C@@H](C)C[C@H]1CC[C@]2(CC1)OC(=O)NN=C2c1ccc(F)cc1C [Example 156] | 412 nM | 236 nM | – | –
Cc1cc(C(=O)N[C@@H](C)C[C@H]2CC[C@]3(CC2)OC(=O)NN=C3c2ccc(S(C)(=O)=O)cc2Br)[nH]n1 [Example 31] | < 10 nM | 24 nM | – | –
CNC(=O)C(=O)N[C@@H](C)CN1CCC2(CC1)OC(=O)NN=C2c1ncccc1Br [Example 2-028] | 32 nM | 45 nM | – | –
C[C@@H](C[C@H]1CC[C@]2(CC1)OC(=O)NN=C2c1cc(C#N)ccc1Br)NC(=O)c1ncon1 [Example 293] | 325 nM | 127 nM | – | –
CNC(=O)C(=O)NC(C)C[C@H]1CC[C@@]2(CC1)OC(=O)NN=C2c1cc(C#N)ccc1Br (mixture of isomers) [Example 2-148] | – | – | 46 nM | 140 nM
